Test results reported in ChEMBL document CHEMBL1909046, “DrugMatrix in vitro pharmacology data”.

Tested on: not listed separately
Assay: DRUGMATRIX: GABAA, Muscimol, Central radioligand binding (ligand: [3H] Muscimol)
Type: cell membranes, Rattus norvegicus, Wistar, Brain, Membrane
Conditions: Not Active = under 50% inhibition at 10 µM

Row | Compound | IC50 | Ki
1 | Clc1ccc(C(c2ccccc2Cl)C(Cl)Cl)cc1 (centres undefined) [MITOTANE] | Not Active | Not Active
2 | COc1c(C)c2c(c(O)c1C/C=C(\C)CCC(=O)OCCN1CCOCC1)C(=O)OC2 [MYCOPHENOLATE MOFETIL] | Not Active | Not Active

Target: T1, Endothelin-1 receptor (Homo sapiens, UniProt P25101); also: in other assays of this panel Not Active means under 50% inhibition at 10 µM
T1 sequence (P25101 whole entry): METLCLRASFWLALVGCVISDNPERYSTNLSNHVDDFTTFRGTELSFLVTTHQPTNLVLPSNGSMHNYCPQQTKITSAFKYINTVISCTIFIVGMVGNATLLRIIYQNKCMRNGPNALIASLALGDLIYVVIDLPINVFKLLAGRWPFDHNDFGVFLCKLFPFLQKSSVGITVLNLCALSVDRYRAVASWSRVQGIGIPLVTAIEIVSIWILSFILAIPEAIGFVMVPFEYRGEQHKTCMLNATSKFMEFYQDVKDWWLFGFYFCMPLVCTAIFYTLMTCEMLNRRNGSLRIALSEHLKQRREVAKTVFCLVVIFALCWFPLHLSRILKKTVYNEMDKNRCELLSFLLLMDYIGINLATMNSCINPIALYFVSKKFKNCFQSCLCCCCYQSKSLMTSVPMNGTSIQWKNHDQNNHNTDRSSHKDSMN
Type: cell membranes, Membrane
Conditions: cho-k1

Row | Compound | IC50
3 | Clc1ccc(C(c2ccccc2Cl)C(Cl)Cl)cc1 (centres undefined) [MITOTANE] | Not Active
4 | COc1c(C)c2c(c(O)c1C/C=C(\C)CCC(=O)OCCN1CCOCC1)C(=O)OC2 [MYCOPHENOLATE MOFETIL] | Not Active

Target: Melanocortin receptor 4 (Homo sapiens, UniProt P32245); also: in other assays of this panel Not Active means under 50% inhibition at 10 µM
Type: cell membranes, Membrane
Conditions: hek293

Sequence of Melanocortin receptor 4 (P32245 whole entry): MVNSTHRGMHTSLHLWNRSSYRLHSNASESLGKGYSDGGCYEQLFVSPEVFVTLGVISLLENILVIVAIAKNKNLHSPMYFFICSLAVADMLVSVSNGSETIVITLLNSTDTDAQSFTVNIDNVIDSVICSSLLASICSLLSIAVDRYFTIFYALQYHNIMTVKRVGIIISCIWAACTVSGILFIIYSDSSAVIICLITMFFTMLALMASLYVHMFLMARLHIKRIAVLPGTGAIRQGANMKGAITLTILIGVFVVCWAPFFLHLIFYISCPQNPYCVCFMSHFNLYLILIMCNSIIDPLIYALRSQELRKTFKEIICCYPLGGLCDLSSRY

Row | Compound | IC50
5 | Clc1ccc(C(c2ccccc2Cl)C(Cl)Cl)cc1 (centres undefined) [MITOTANE] | Not Active
6 | COc1c(C)c2c(c(O)c1C/C=C(\C)CCC(=O)OCCN1CCOCC1)C(=O)OC2 [MYCOPHENOLATE MOFETIL] | Not Active

Tested on: not listed separately
Assay: DRUGMATRIX: Serotonin (5-Hydroxytryptamine) 5-HT3 radioligand binding (ligand: [3H] GR-65630)
Type: cell membranes, Membrane
Conditions: hek293; Not Active = under 50% inhibition at 10 µM

Row | Compound | IC50 | Ki
7 | Clc1ccc(C(c2ccccc2Cl)C(Cl)Cl)cc1 (centres undefined) [MITOTANE] | Not Active | Not Active
8 | COc1c(C)c2c(c(O)c1C/C=C(\C)CCC(=O)OCCN1CCOCC1)C(=O)OC2 [MYCOPHENOLATE MOFETIL] | Not Active | Not Active

Target: T2, Alpha-1B adrenergic receptor (Rattus norvegicus, UniProt P15823)
T2 sequence (P15823 whole entry): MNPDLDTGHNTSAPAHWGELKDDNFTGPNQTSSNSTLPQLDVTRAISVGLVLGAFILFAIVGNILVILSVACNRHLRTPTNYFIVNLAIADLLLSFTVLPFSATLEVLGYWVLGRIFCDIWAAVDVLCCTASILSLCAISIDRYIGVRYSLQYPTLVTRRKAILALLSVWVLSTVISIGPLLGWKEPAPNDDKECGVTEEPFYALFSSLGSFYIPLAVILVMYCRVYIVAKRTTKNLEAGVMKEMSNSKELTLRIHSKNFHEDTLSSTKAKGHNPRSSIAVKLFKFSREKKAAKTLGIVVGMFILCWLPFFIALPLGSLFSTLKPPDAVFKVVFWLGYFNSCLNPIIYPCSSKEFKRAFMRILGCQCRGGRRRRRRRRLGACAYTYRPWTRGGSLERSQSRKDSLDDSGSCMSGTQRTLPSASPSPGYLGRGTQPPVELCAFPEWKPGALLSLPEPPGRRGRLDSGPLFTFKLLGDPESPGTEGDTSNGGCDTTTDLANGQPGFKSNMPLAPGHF
Assay: DRUGMATRIX: Alpha-1B adrenergic receptor radioligand binding (ligand: prazosin)
Type: cell membranes, Wistar, Liver, Membrane
Conditions: Not Active = under 50% inhibition at 10 µM

Row | Compound | IC50
9 | Clc1ccc(C(c2ccccc2Cl)C(Cl)Cl)cc1 (centres undefined) [MITOTANE] | Not Active
10 | COc1c(C)c2c(c(O)c1C/C=C(\C)CCC(=O)OCCN1CCOCC1)C(=O)OC2 [MYCOPHENOLATE MOFETIL] | Not Active

Target: 5-hydroxytryptamine receptor 6 (Homo sapiens, UniProt P50406); also: in other assays of this panel Not Active means under 50% inhibition at 10 µM
Type: cell membranes, HeLa, Membrane
Conditions: hela

Sequence of 5-hydroxytryptamine receptor 6 (P50406 whole entry): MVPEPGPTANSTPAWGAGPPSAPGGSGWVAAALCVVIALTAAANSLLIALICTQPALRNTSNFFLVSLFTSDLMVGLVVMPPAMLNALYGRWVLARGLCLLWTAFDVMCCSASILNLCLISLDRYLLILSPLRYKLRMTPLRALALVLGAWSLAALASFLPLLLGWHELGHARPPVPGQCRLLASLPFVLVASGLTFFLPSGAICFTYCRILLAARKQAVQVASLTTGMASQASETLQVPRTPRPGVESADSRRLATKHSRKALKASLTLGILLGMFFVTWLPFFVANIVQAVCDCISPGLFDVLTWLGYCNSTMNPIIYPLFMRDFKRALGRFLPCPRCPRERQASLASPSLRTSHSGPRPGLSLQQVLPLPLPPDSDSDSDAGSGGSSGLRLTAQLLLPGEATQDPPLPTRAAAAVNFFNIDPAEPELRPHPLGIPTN

Row | Compound | IC50
11 | COc1c(C)c2c(c(O)c1C/C=C(\C)CCC(=O)OCCN1CCOCC1)C(=O)OC2 [MYCOPHENOLATE MOFETIL] | Not Active

Same assay, conditions: read-out: IC50

Row | Compound | IC50 [µM]
12 | Clc1ccc(C(c2ccccc2Cl)C(Cl)Cl)cc1 (centres undefined) [MITOTANE] | 1.4

Same assay, conditions: read-out: Ki

Row | Compound | Ki [µM]
13 | Clc1ccc(C(c2ccccc2Cl)C(Cl)Cl)cc1 (centres undefined) [MITOTANE] | 0.651

Target: Mu-type opioid receptor (Homo sapiens, UniProt P35372)
Assay: DRUGMATRIX: Opiate mu (OP3, MOP) radioligand binding (ligand: [3H] Diprenorphine)
Type: cell membranes, CHO-K1, Membrane
Conditions: cho-k1; Not Active = under 50% inhibition at 10 µM

Sequence of Mu-type opioid receptor (P35372 whole entry): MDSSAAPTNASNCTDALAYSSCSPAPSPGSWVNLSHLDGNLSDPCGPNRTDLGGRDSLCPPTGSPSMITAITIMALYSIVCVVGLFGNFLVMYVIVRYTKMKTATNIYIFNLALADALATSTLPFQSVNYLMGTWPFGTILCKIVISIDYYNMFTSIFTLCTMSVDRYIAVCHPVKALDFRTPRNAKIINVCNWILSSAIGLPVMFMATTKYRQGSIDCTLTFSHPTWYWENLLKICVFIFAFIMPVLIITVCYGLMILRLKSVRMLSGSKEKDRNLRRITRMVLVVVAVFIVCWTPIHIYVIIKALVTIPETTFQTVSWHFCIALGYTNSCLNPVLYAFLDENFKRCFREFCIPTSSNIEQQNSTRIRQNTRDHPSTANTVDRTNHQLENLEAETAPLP

Row | Compound | IC50
14 | Clc1ccc(C(c2ccccc2Cl)C(Cl)Cl)cc1 (centres undefined) [MITOTANE] | Not Active
15 | COc1c(C)c2c(c(O)c1C/C=C(\C)CCC(=O)OCCN1CCOCC1)C(=O)OC2 [MYCOPHENOLATE MOFETIL] | Not Active

Target: Kappa-type opioid receptor (Homo sapiens, UniProt P41145)
Assay: DRUGMATRIX: Opiate kappa (OP2, KOP) radioligand binding (ligand: [3H] Diprenorphine)
Type: cell membranes, HEK293, Membrane
Conditions: hek293; Not Active = under 50% inhibition at 10 µM

Sequence of Kappa-type opioid receptor (P41145 whole entry): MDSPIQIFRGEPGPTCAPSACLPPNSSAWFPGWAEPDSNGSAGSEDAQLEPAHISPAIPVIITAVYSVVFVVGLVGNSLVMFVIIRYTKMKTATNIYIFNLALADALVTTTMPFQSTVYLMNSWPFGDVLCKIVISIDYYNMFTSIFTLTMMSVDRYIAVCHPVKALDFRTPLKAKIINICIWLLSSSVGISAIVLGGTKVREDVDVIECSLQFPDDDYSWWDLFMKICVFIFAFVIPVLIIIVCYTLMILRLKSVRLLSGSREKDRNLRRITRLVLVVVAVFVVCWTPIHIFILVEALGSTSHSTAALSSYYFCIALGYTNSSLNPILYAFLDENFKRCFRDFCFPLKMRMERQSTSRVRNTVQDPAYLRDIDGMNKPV

Row | Compound | IC50
16 | Clc1ccc(C(c2ccccc2Cl)C(Cl)Cl)cc1 (centres undefined) [MITOTANE] | Not Active
17 | COc1c(C)c2c(c(O)c1C/C=C(\C)CCC(=O)OCCN1CCOCC1)C(=O)OC2 [MYCOPHENOLATE MOFETIL] | Not Active

Target: Beta-1 adrenergic receptor (Homo sapiens, UniProt P08588)
Assay: DRUGMATRIX: Adrenergic beta1 radioligand binding (ligand: [125I] Cyanopindolol)
Type: cell membranes, CHO-K1, Membrane
Conditions: cho-k1; Not Active = under 50% inhibition at 10 µM

Sequence of Beta-1 adrenergic receptor (P08588 whole entry): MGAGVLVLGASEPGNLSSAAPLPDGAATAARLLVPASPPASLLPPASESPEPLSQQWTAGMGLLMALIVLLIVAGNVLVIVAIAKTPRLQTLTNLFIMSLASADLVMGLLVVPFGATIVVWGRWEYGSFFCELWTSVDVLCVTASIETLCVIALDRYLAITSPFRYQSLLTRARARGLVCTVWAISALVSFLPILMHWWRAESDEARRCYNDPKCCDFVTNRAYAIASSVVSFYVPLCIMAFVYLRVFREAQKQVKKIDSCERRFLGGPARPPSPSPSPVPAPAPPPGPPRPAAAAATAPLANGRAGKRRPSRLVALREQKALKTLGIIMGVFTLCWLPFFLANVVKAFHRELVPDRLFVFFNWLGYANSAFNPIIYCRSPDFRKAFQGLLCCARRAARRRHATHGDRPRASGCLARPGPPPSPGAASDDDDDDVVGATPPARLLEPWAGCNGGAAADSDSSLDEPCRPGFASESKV

Row | Compound | IC50
18 | Clc1ccc(C(c2ccccc2Cl)C(Cl)Cl)cc1 (centres undefined) [MITOTANE] | Not Active
19 | COc1c(C)c2c(c(O)c1C/C=C(\C)CCC(=O)OCCN1CCOCC1)C(=O)OC2 [MYCOPHENOLATE MOFETIL] | Not Active

Tested on: not listed separately
Assay: DRUGMATRIX: Calcium Channel Type L, Benzothiazepine radioligand binding (ligand: [3H] Diltiazem)
Type: cell membranes, Rattus norvegicus, Wistar, Brain, Membrane
Conditions: Not Active = under 50% inhibition at 10 µM

Row | Compound | IC50 | Ki
20 | Clc1ccc(C(c2ccccc2Cl)C(Cl)Cl)cc1 (centres undefined) [MITOTANE] | Not Active | Not Active
21 | COc1c(C)c2c(c(O)c1C/C=C(\C)CCC(=O)OCCN1CCOCC1)C(=O)OC2 [MYCOPHENOLATE MOFETIL] | Not Active | Not Active

Target: T3, Neuropeptide Y receptor type 2 (Homo sapiens, UniProt P49146); also: in other assays of this panel Not Active means under 50% inhibition at 10 µM
T3 sequence (P49146 whole entry): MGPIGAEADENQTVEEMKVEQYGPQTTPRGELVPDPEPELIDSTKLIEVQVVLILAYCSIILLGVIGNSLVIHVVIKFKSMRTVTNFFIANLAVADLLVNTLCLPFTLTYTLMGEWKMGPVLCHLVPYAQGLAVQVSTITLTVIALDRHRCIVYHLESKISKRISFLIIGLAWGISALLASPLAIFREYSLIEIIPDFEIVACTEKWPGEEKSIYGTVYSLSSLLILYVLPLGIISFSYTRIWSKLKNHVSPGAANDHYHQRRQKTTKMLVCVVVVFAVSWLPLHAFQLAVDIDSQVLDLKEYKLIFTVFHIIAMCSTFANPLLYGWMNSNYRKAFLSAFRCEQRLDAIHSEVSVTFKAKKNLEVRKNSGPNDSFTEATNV
Type: cell membranes, Membrane
Conditions: kan-ts

Row | Compound | IC50
22 | Clc1ccc(C(c2ccccc2Cl)C(Cl)Cl)cc1 (centres undefined) [MITOTANE] | Not Active
23 | COc1c(C)c2c(c(O)c1C/C=C(\C)CCC(=O)OCCN1CCOCC1)C(=O)OC2 [MYCOPHENOLATE MOFETIL] | Not Active

Tested on: not listed separately
Assay: DRUGMATRIX: Nicotinic Acetylcholine radioligand binding (ligand: [125I] Epibatidine)
Type: cell membranes, Membrane
Conditions: imr-32; Not Active = under 50% inhibition at 10 µM

Row | Compound | IC50 | Ki
24 | Clc1ccc(C(c2ccccc2Cl)C(Cl)Cl)cc1 (centres undefined) [MITOTANE] | Not Active | Not Active
25 | COc1c(C)c2c(c(O)c1C/C=C(\C)CCC(=O)OCCN1CCOCC1)C(=O)OC2 [MYCOPHENOLATE MOFETIL] | Not Active | Not Active

Tested on: not listed separately
Assay: DRUGMATRIX: Calcium Channel Type L, Phenylalkylamine radioligand binding (ligand: [3H] (-)-Desmethoxyverapamil (D-888))
Type: cell membranes, Rattus norvegicus, Wistar, Brain, Membrane
Conditions: Not Active = under 50% inhibition at 10 µM

Row | Compound | IC50 | Ki
26 | Clc1ccc(C(c2ccccc2Cl)C(Cl)Cl)cc1 (centres undefined) [MITOTANE] | Not Active | Not Active
27 | COc1c(C)c2c(c(O)c1C/C=C(\C)CCC(=O)OCCN1CCOCC1)C(=O)OC2 [MYCOPHENOLATE MOFETIL] | Not Active | Not Active

Tested on: not listed separately
Assay: DRUGMATRIX: ATPase, Na+/K+ enzyme inhibition (substrate: ATP)
Type: tissue-based, Sus scrofa, Heart
Conditions: Not Active = under 50% inhibition at 10 µM

Row | Compound | IC50 | Ki
28 | Clc1ccc(C(c2ccccc2Cl)C(Cl)Cl)cc1 (centres undefined) [MITOTANE] | Not Active | Not Active
29 | COc1c(C)c2c(c(O)c1C/C=C(\C)CCC(=O)OCCN1CCOCC1)C(=O)OC2 [MYCOPHENOLATE MOFETIL] | Not Active | Not Active

Target: T4, 5-hydroxytryptamine receptor 2C (Homo sapiens, UniProt P28335)
T4 sequence (P28335 whole entry): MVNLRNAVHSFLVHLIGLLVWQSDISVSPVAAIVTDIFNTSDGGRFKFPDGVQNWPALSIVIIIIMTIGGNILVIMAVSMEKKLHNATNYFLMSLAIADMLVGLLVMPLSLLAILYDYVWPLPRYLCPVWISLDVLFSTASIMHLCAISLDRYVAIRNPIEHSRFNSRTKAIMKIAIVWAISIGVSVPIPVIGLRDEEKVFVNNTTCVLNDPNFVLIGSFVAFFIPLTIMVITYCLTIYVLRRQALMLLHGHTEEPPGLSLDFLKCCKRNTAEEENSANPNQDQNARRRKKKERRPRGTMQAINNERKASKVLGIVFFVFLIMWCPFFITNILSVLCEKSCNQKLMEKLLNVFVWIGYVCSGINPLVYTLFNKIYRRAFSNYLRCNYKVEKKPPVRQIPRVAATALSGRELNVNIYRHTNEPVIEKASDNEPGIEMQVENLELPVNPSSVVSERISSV
Assay: DRUGMATRIX: Serotonin (5-Hydroxytryptamine) 5-HT2C radioligand binding (ligand: [3H] Mesulergine)
Type: cell membranes, CHO-K1, Membrane
Conditions: cho-k1; Not Active = under 50% inhibition at 10 µM

Row | Compound | IC50
30 | Clc1ccc(C(c2ccccc2Cl)C(Cl)Cl)cc1 (centres undefined) [MITOTANE] | Not Active
31 | COc1c(C)c2c(c(O)c1C/C=C(\C)CCC(=O)OCCN1CCOCC1)C(=O)OC2 [MYCOPHENOLATE MOFETIL] | Not Active

Target: Sigma non-opioid intracellular receptor 1 (Homo sapiens, UniProt Q99720)
Assay: DRUGMATRIX: Sigma1 radioligand binding (ligand: [3H] Haloperidol)
Type: cell membranes, Jurkat, Membrane
Conditions: jurkat; Not Active = under 50% inhibition at 10 µM

Sequence of Sigma non-opioid intracellular receptor 1 (Q99720 whole entry): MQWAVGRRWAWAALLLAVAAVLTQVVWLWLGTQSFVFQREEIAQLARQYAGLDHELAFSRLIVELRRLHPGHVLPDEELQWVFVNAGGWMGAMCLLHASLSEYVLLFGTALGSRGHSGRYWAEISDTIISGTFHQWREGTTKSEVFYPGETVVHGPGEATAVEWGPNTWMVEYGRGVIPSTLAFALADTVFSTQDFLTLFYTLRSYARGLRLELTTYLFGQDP

Row | Compound | IC50
32 | Clc1ccc(C(c2ccccc2Cl)C(Cl)Cl)cc1 (centres undefined) [MITOTANE] | Not Active
33 | COc1c(C)c2c(c(O)c1C/C=C(\C)CCC(=O)OCCN1CCOCC1)C(=O)OC2 [MYCOPHENOLATE MOFETIL] | Not Active

Tested on: not listed separately
Assay: DRUGMATRIX: Glutamate, Kainate radioligand binding (ligand: [3H] Kainic acid)
Type: cell membranes, Rattus norvegicus, Wistar, Brain, Membrane
Conditions: Not Active = under 50% inhibition at 10 µM

Row | Compound | IC50 | Ki
34 | Clc1ccc(C(c2ccccc2Cl)C(Cl)Cl)cc1 (centres undefined) [MITOTANE] | Not Active | Not Active
35 | COc1c(C)c2c(c(O)c1C/C=C(\C)CCC(=O)OCCN1CCOCC1)C(=O)OC2 [MYCOPHENOLATE MOFETIL] | Not Active | Not Active
